{"source": "patent US8999892B2", "about": "“Use of S-abscisic acid for improving fruit set and producing parthenocarpic fruits and as a growth inhibitor” (Globachem, priority 2004, dated 2015)", "type_in_all_cases": "in vivo", "key": {"[1]": {"tested_on": "apple trees, variety Jonagored", "experiment": "Promoting fruit set in pome fruit, orchard spray trial 2003", "settings": "2 g/ha sprayed three weeks after full flower", "excerpt": "Experimental period: 2003 Pome fruit crops treated: apple trees, variety Jonagored. The fruit orchard was sprayed on 9 May, that is, three weeks after full flower (18 April). S-ABA was applied in a dose of 2 g/ha. For the control experiment, the same formulation, but without S-ABA, was used. The number of fruit trees per plot was 10."}, "[2]": {"tested_on": "apple trees, variety Boskoop", "experiment": "Promoting fruit set, production of parthenocarpic fruits and inhibition of growth in pome fruit, orchard spray trial 2004", "settings": "for Number of apples/tree / Number of unclosed buds/tree (crown tip excluded): evaluation 6 Jul. 2004", "excerpt": "Experimental period: 2004 Pome fruit crops treated: apple trees, variety Boskoop The fruit orchard was sprayed on 23 April, that is, during full flower. A further plot was spayed on 20 May 2004. S-ABA was applied in a dose of 2 g/ha. For the control experiment, the same formulation, but with-out S-ABA, was used. The number of fruit trees per plot was 40. The evaluation on 6 Jul. 2004 provided the following results: The buds or shoots in the crown tip of the trees were not taken into account because increased shoot growth frequently occurs in these places due to intensive cutting measures. In general, the growth of shoots in the crown tip is stronger than in the other regions of the tree crown."}, "[3]": {"tested_on": "cherry trees, variety Summit", "experiment": "Improvement of fruit set in stone fruit, orchard spray trial 2004", "settings": "2 g/ha sprayed one week after flowering", "excerpt": "Experimental period: 2004 Stone fruit crops treated: cherry trees, variety Summit The fruit orchard was sprayed with S-ABA one week after flowering; the dose was 2 g/ha. For the control experiment, the same formulation, but without S-ABA, was used. The number of fruit trees per plot was 5."}, "[4]": {"settings": "2 g/ha sprayed 23 April (full flower)"}}}
{"smiles": "CC(C=C[C@@]1(O)C(C)=CC(=O)CC1(C)C)=CC(=O)O", "note": "(stereo in doubt) [S-ABA, (S)-5-(1-hydroxy-2,6,6-trimethyl-4-oxo-2-cyclohexenyl)-3-methyl-cis/trans-2,4-pentanedienoic acid]", "values": [{"measurement": "Apples in grade 75-85 mm", "setting": "[1]", "value": 15.54, "unit": "kg"}, {"measurement": "Apples in grade A2++ (75-85 mm)", "setting": "[1]", "value": 9.62, "unit": "kg"}, {"measurement": "Increase in number of apples per tree as compared to the control", "setting": "[1]", "value": 17, "unit": "%"}, {"measurement": "Increase in yield (in kg) as compared to the control", "setting": "[1]", "value": 8, "unit": "%"}, {"measurement": "Increase in yield in the high grades", "setting": "[1]", "value": 84, "unit": "%"}, {"measurement": "Increase in yield of grade A2++ (optimal fruit color)", "setting": "[1]", "value": "near doubling of the yield"}, {"measurement": "Number of apples/tree", "setting": "[1]", "value": 129}, {"measurement": "Yield", "setting": "[1]; 10 trees per plot", "value": 33.37, "unit": "kg/tree"}, {"measurement": "Number of apples/tree", "setting": "[2]; 2 g/ha sprayed 20 May", "value": 42}, {"measurement": "Number of unclosed buds/tree (crown tip excluded)", "setting": "[2]; 2 g/ha sprayed 20 May", "value": 0}, {"measurement": "Number of apples/tree", "setting": "[2]; [4]", "value": 35.4}, {"measurement": "Number of unclosed buds/tree (crown tip excluded)", "setting": "[2]; [4]", "value": 1.66}, {"measurement": "Increase in total number of apples per tree as compared with the control", "setting": "[2]; plot treated 20 May", "value": "approximately 21%"}, {"measurement": "Closure of buds (inhibition of vegetative growth)", "setting": "[2]; plots treated with S-ABA, independently of the time of treatment", "value": "almost all buds were closed"}, {"measurement": "Effect on fruit set of treatment during flowering", "setting": "[2]; treatment during flowering (23 April)", "value": "not adversely affected"}, {"measurement": "Formation of parthenocarpic fruits", "setting": "[2]; trees treated with 2 g/ha", "value": "parthenocarpic, pipless fruits were formed"}, {"measurement": "Formation of parthenocarpic fruits", "setting": "[3]", "value": "Parthenocarpic fruits were not observed"}, {"measurement": "Increase in number of fruits compared to the control plot", "setting": "[3]", "value": "near doubling of the number of fruits"}, {"measurement": "Weight per cherry", "setting": "[3]", "value": "not significantly influenced"}, {"measurement": "Yield", "setting": "[3]; 5 trees per plot", "value": 25, "unit": "kg/tree"}]}
